Test results as given in publication PMC9295122, “Sialic Acid Derivatives Inhibit SiaT Transporters and Delay Bacterial Growth” (ACS Chemical Biology, 2022).
In brackets after ≈: the same amount, converted by molar mass. Where two headings read alike, the source gives them in different places.

Tests used:
SaSiaT = SaSiaT (Staphylococcus aureus, UniProt A0A0H2XJ46); test: nanoDSF thermal shift assay, SaSiaT; format: binding; conditions: for Average 1 / Average 2 / Average 3 / Replicate 1 / Replicate 2 / Replicate 3: SaSiaT Tm; for Average 1: average of experiment 1; for Average 2: average of experiment 2; for Average 3: average of experiment 3; for Replicate 1: experiment 1, second capillary; for Replicate 1 / Replicate 2 / Replicate 3 / Tm 1 / Tm2 / Tm 3 / Overall average (Tm): 1.25 mM; for Replicate 2: experiment 2, second capillary; for Replicate 3: experiment 3, second capillary; for Tm 1 / Tm2 / Tm 3 / Overall average (Tm): SaSiaT; for Tm 1: experiment 1, first capillary; for Tm2: experiment 2, first capillary; for Tm 3: experiment 3, first capillary; for Overall average (Tm): three experiments
Procedure, shortened: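 Protein at 2 μM in PBS with 0.0174% (w/v) DDM and ligand at 1.25 mM were heated from 25 to 95 °C at 1 °C/min, with 330/350 nm fluorescence ratio and its first derivative giving Tm. ΔTm is relative to the Neu5Ac Tm, averaged over 3 experiments with 2 capillaries each.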

PmSiaT = molecular target: T1, PmSiaT (Proteus mirabilis, UniProt B4EZY7); test: Isothermal titration calorimetry, PmSiaT; format: binding
T1 construct: made in house
T1 sequence (B4EZY7 1-496): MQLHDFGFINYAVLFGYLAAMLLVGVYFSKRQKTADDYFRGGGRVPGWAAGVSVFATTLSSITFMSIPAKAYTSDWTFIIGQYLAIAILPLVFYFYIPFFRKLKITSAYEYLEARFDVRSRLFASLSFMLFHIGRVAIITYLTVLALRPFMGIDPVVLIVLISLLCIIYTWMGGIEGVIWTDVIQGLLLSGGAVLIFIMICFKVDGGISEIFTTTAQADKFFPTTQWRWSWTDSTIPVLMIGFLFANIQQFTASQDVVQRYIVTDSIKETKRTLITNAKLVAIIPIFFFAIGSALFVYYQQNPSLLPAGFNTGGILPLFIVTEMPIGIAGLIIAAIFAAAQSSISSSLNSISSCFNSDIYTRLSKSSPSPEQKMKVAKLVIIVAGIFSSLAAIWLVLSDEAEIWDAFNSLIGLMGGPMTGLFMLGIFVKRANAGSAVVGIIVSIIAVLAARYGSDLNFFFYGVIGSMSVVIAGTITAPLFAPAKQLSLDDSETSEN
Protocol: The binding thermodynamic analysis performed via isothermal titration calorimetry (ITC) provides insights into dissociation constants (Kd) and the binding driving forces of compounds 3a, 3e, and 3f with PmSiaT and SaSiaT.
Isothermal titration calorimetric experiments were performed on an ITC200 instrument (MicroCal, Northampton, USA) at 25 °C using standard instrument settings (reference power of 6 μcal s^–1, stirring speed of 750 rpm, feedback mode high, and filter period of 2 s). Protein solutions were dialyzed against ITC buffer (50 mM Tris–HCl, 150 mM NaCl, with 0.0174% (w/v) DDM, pH 8.0 at 5 °C) prior to the experiments, and all the samples were prepared using the dialysate buffer to minimize dilution effects. Protein concentrations were determined spectrophotometrically with the specific absorbance at 280 nm employing an extinction coefficient of 76,445 mol^–1 cm^–1 for PmSiaT and 75,750 M^–1 cm^–1 for SaSiaT. […] In a typical experiment, a 0.3–1.0 mM inhibitor solution was titrated to a solution containing 30–50 μM of PmSiaT or 13–20 μM of SaSiaT to ensure >90% saturation. Baseline correction, peak integration, and nonlinear regression analysis of experimental data were performed using the NITPIC (version 1.2.2.)[41] and SEDPHAT (version 12.1b)[42] software packages. The stoichiometry parameter was manually constrained to a value of 1. Experiments were performed in triplicate and the 68% confidence intervals from global fitting of three experiments were calculated as an estimate of the experimental error. All the titration curves can be found in Figures S10–S15.

[1] = Plasma-protein binding by RED, range over three species; format: in vitro ADME; conditions: pH 7.2, range over human, mouse, and rat, read-out: free fraction (plasma protein binding by RED)
From the text: Next, we investigated the physiochemical and absorption, distribution, metabolism, and excretion (ADME) properties of compounds 3a, 3e, and 3f (Tables S5 and S6). […] The logD at pH 7.4 was below 0 for all three compounds (<−0.5 for compounds 3a and 3e). […] Overall, these features represent promising starting points for further development of this class of molecules.
(§1) The assay was run in a deep well plate containing RED inserts with semipermeable dialysis membranes. The reaction was started by adding the compounds to a blank plasma in a 5 μM concentration. Opposite to the blank plasma was a compartment containing isotonic sodium–phosphate buffer (pH 7.2) separated from the plasma by the membrane. The plate was equilibrated in a water bath at 37 °C for 4 h. Samples from both the plasma and the buffer side were matrix compensated before protein precipitation. The samples were centrifuged, and the supernatants were diluted and analyzed by LC–MS/MS to determine the % unbound compound. Two incubations per compound per species.

Plasma stability, rat = format: in vitro ADME; conditions: 1 μM, 37 °C
Protocol: (§2) The reaction was started by the addition of the compound to blank plasma in LC vials after preincubation at 37 °C. The initial compound concentration was 1 μM. The reaction was stopped by the addition of ACN at seven time points (0, 0.5, 1, 2, 4, 6, and 23 h). Time point 0 h was about 15–20 s after spiking the plasma with the compound. The samples were centrifuged and the supernatant diluted and analyzed by LC–MS/MS to determine the % of compound remaining relative to the initial concentration of compound.

[2] = Plasma-protein binding by RED, rat; format: in vitro ADME; conditions: pH 7.2, read-out: Plasma-protein binding by RED (% unbound compound, average n=2)
Protocol: as §1

Plasma stability, mouse = format: in vitro ADME; conditions: 1 μM, 37 °C
Protocol: as §2

Plasma stability, dog = format: in vitro ADME; conditions: 1 μM, 37 °C
Protocol: as §2

Solid solubility = format: physicochemical; conditions: phosphate buffer, pH 7.4, aqueous buffer, thermodynamic from solid; from solid material, tested up to 2000 μM; read-out: Solid solubility in 0.1 M phosphate buffer pH 7.4
From the text: Duplicate samples per compound.

Chain of SaSiaT (A0A0H2XJ46 entry or part of it): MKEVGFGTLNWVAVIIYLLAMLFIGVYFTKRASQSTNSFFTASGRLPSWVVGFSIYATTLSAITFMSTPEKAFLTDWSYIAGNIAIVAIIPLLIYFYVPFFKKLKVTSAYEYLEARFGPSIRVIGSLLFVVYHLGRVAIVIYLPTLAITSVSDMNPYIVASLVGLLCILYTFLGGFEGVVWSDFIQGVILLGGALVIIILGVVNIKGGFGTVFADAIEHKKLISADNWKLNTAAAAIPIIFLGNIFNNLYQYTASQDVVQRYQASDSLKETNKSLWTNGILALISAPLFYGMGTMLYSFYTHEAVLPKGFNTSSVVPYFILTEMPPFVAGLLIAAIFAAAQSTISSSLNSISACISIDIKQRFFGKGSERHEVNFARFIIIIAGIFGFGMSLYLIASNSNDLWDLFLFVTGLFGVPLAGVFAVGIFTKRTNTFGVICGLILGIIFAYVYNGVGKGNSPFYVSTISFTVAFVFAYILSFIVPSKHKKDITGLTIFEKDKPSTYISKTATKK

CC(=O)N[C@H]1[C@H]([C@H](O)[C@H](O)CO)OC(O)(C(=O)O)C[C@@H]1O (stereo partly shown) [Neu5Ac, 5-N-acetyl neuraminic acid, reference compound]
Average 1 (SaSiaT): 51.3 °C
Average 2 (SaSiaT): 51.1 °C
Average 3 (SaSiaT): 51.3 °C
Replicate 1 (SaSiaT): 51.4 °C
Replicate 2 (SaSiaT): 51.4 °C
Replicate 3 (SaSiaT): 51.0 °C
Tm 1 (SaSiaT): 51.3 °C
Tm2 (SaSiaT): 50.9 °C
Tm 3 (SaSiaT): 51.6 °C
Overall average (Tm) (SaSiaT): 51.2 °C
Kd (PmSiaT): 50 ± 9 µM
PmSiaT -TΔS° (PmSiaT; ITC): -12.6 kcal/mol
PmSiaT ΔG° (PmSiaT; ITC): -5.86 kcal/mol
PmSiaT ΔH° (PmSiaT; ITC): 6.72 kcal/mol

CC(=O)NC1C(OCc2cc(F)cc(F)c2)CC(O)(C(=O)O)OC1C(O)C(O)CO (stereo not shown) [Compound 3e]
Average 1 (SaSiaT): 57.3 °C
Average 2 (SaSiaT): 56.7 °C
Average 3 (SaSiaT): 57.1 °C
Replicate 1 (SaSiaT): 57.3 °C
Replicate 2 (SaSiaT): 56.7 °C
Replicate 3 (SaSiaT): 56.9 °C
Tm 1 (SaSiaT): 57.3 °C
Tm2 (SaSiaT): 56.6 °C
Tm 3 (SaSiaT): 57.2 °C
Overall average (Tm) (SaSiaT): 57.0 °C
fraction unbound at 4 h, 5 μM [1]: 0.63 to 0.85
In vitro plasma stability (% compound remaining after 23 h) (Plasma stability, rat): 100%
PmSiaT -TΔS° (PmSiaT; ITC): -15.7 kcal/mol
PmSiaT ΔG° (PmSiaT; ITC): -7.12 kcal/mol
PmSiaT ΔH° (PmSiaT; ITC): 8.58 kcal/mol
Kd (PmSiaT; PmSiaT Kd, ITC, 25 °C): 6.2 ± 2.8 µM
Kd (PmSiaT; PmSiaT Kd, ITC, Table S4): 6.07 µM
fraction unbound at 4 h, 5 μM [2]: 0.67
In vitro plasma stability (% compound remaining after 23 h) (Plasma stability, mouse): 100%
In vitro plasma stability (% compound remaining after 23 h) (Plasma stability, dog): 100%
solubility (Solid solubility): > 2000 µM

CC(=O)NC1C(OCc2cc(Br)cc(Br)c2)CC(O)(C(=O)O)OC1C(O)C(O)CO (stereo not shown) [Compound 3f]
Average 1 (SaSiaT): 53.1 °C
Average 2 (SaSiaT): 54.0 °C
Average 3 (SaSiaT): 54.4 °C
Replicate 1 (SaSiaT): 53.1 °C
Replicate 2 (SaSiaT): 54.0 °C
Replicate 3 (SaSiaT): 54.3 °C
Tm 1 (SaSiaT): 53.1 °C
Tm2 (SaSiaT): 54.0 °C
Tm 3 (SaSiaT): 54.4 °C
Overall average (Tm) (SaSiaT): 53.8 °C
ΔTm (SaSiaT; nanoDSF, relative to Neu5Ac, ligand 1.25 mM, <−5 °C nonbinder): 2.6 ± 0.7 °C
fraction unbound at 4 h, 5 μM [1]: 0.21 to 0.27
In vitro plasma stability (% compound remaining after 23 h) (Plasma stability, rat): 100%
PmSiaT -TΔS° (PmSiaT; ITC): -17.8 kcal/mol
PmSiaT ΔG° (PmSiaT; ITC): -8.96 kcal/mol
PmSiaT ΔH° (PmSiaT; ITC): 8.87 kcal/mol
Kd (PmSiaT; PmSiaT Kd, ITC, 25 °C): 0.27 ± 0.14 µM
Kd (PmSiaT; PmSiaT Kd, ITC, Table S4): 0.272 µM
affinity increase of binding for PmSiaT (PmSiaT; compared to the natural substrate Neu5Ac): 180 fold
fraction unbound at 4 h, 5 μM [2]: 0.21
In vitro plasma stability (% compound remaining after 23 h) (Plasma stability, mouse): 100%
In vitro plasma stability (% compound remaining after 23 h) (Plasma stability, dog): 81%
solubility (Solid solubility): 1630 µM (≈ 908 µg/mL)

CC(=O)NC1C(OCc2ccccc2)CC(O)(C(=O)O)OC1C(O)C(O)CO (stereo not shown) [Compound 3a]
Average 1 (SaSiaT): 56.2 °C
Average 2 (SaSiaT): 55.7 °C
Average 3 (SaSiaT): 56.3 °C
Replicate 1 (SaSiaT): 56.1 °C
Replicate 2 (SaSiaT): 55.8 °C
Replicate 3 (SaSiaT): 56.1 °C
Tm 1 (SaSiaT): 56.2 °C
Tm2 (SaSiaT): 55.7 °C
Tm 3 (SaSiaT): 56.6 °C
Overall average (Tm) (SaSiaT): 56.1 °C
fraction unbound at 4 h, 5 μM [1]: 0.63 to 0.85
In vitro plasma stability (% compound remaining after 23 h) (Plasma stability, rat): 100%
PmSiaT -TΔS° (PmSiaT; ITC): -13.9 kcal/mol
PmSiaT ΔG° (PmSiaT; ITC): -6.91 kcal/mol
PmSiaT ΔH° (PmSiaT; ITC): 7 kcal/mol
Kd (PmSiaT; PmSiaT Kd, ITC, 25 °C): 9 ± 3.2 µM
Kd (PmSiaT; PmSiaT Kd, ITC, Table S4): 8.77 µM
fraction unbound at 4 h, 5 μM [2]: 0.72
In vitro plasma stability (% compound remaining after 23 h) (Plasma stability, mouse): 100%
In vitro plasma stability (% compound remaining after 23 h) (Plasma stability, dog): 100%
solubility (Solid solubility): > 2000 µM
